Assay results published in patent US10239844B2, “Disubstituted triazole analogs” (BioVentures, LLC, priority 2014, dated 2019).

Experiments:
Type in all cases: cell-based, human
IGROV1 = test: NCI 60 panel five-dose growth inhibition, Ovarian Cancer
SK-MEL-28 = test: NCI 60 panel five-dose growth inhibition, Melanoma; conditions: SK-MEL-28, Melanoma
CAKI-1 = test: NCI 60 panel five-dose growth inhibition, Renal Cancer; conditions: CAKI-1, Renal Cancer
ACHN = test: as above
SF-539 = test: NCI 60 panel five-dose growth inhibition, CNS Cancer; conditions: SF-539, CNS Cancer
A549/ATCC = test: NCI 60 panel five-dose growth inhibition, Non-Small Cell Lung Cancer
UACC-62 = test: NCI 60 panel five-dose growth inhibition, Melanoma
KM12 = test: NCI 60 panel five-dose growth inhibition, Colon Cancer
1-ICT-15 = test: as above; conditions: 1-ICT-15, Colon Cancer
MDA-MB-231/ATCC = test: NCI 60 panel five-dose growth inhibition, Breast Cancer
CCRF-CEM = test: NCI 60 panel five-dose growth inhibition, Leukemia
786-0 = test: NCI 60 panel five-dose growth inhibition, Renal Cancer; conditions: 786-0, Renal Cancer
5K-MEL-5 = test: NCI 60 panel five-dose growth inhibition, Melanoma; conditions: 5K-MEL-5, Melanoma
MDA-MB-468 = test: NCI 60 panel five-dose growth inhibition, Breast Cancer; conditions: MDA-MB-468, Breast Cancer
U0-31 = test: NCI 60 panel five-dose growth inhibition, Renal Cancer; conditions: U0-31, Renal Cancer
HOP-92 = test: NCI 60 panel five-dose growth inhibition, Non-Small Cell Lung Cancer; conditions: HOP-92, Non-Small Cell Lung Cancer
M14 = test: NCI 60 panel five-dose growth inhibition, Melanoma; conditions: Homo sapiens
HCT-116 = test: NCI 60 panel five-dose growth inhibition, Colon Cancer; conditions: Homo sapiens; HCT-116, Colon Cancer
COLO 205 = test: as above; conditions: COLO 205, Colon Cancer
SF-268 = test: NCI 60 panel five-dose growth inhibition, CNS Cancer; conditions: SF-268, CNS Cancer
MOLT-4 = test: NCI 60 panel five-dose growth inhibition, Leukemia; conditions: MOLT-4, Leukemia
SW-620 = test: NCI 60 panel five-dose growth inhibition, Colon Cancer; conditions: SW-620, Colon Cancer
SNB-75 = test: NCI 60 panel five-dose growth inhibition, CNS Cancer; conditions: Homo sapiens; SNB-75, CNS Cancer
SNB-19 = test: as above; conditions: SNB-19, CNS Cancer
MDA-MB-435 = test: NCI 60 panel five-dose growth inhibition, Melanoma; conditions: Homo sapiens; MDA-MB-435, Melanoma
SR = test: NCI 60 panel five-dose growth inhibition, Leukemia
DU-145 = test: NCI 60 panel five-dose growth inhibition, Prostate Cancer; conditions: Homo sapiens; DU-145, Prostate Cancer
MCF7 = test: NCI 60 panel five-dose growth inhibition, Breast Cancer
NCI-H460 = test: NCI 60 panel five-dose growth inhibition, Non-Small Cell Lung Cancer
HT29 = test: NCI 60 panel five-dose growth inhibition, Colon Cancer
HOP-62 = test: NCI 60 panel five-dose growth inhibition, Non-Small Cell Lung Cancer; conditions: HOP-62, Non-Small Cell Lung Cancer
HCC-2998 = test: NCI 60 panel five-dose growth inhibition, Colon Cancer; conditions: HCC-2998, Colon Cancer
SK-OV-3 = test: NCI 60 panel five-dose growth inhibition, Ovarian Cancer; conditions: SK-OV-3, Ovarian Cancer
NCI-H23 = test: NCI 60 panel five-dose growth inhibition, Non-Small Cell Lung Cancer
NCI/ADR-RES = test: NCI 60 panel five-dose growth inhibition, Ovarian Cancer
PC-3 = test: NCI 60 panel five-dose growth inhibition, Prostate Cancer; conditions: PC-3, Prostate Cancer
OVCAR-4 = test: NCI 60 panel five-dose growth inhibition, Ovarian Cancer; conditions: OVCAR-4, Ovarian Cancer

COc1cc(-c2n[nH]nc2-c2cc(OC)c(OC)c(OC)c2)cc(OC)c1OC [Example 3, 4,5-bis(3,4,5-trimethoxyphenyl)-2H-1,2,3-triazole]
TGI (IGROV1): >100000 nM | GI50 (IGROV1; Homo sapiens, IGROV-1): 64.8 nM | GI50 (SK-MEL-28; Homo sapiens): > 1000 nM | TGI (SK-MEL-28): 6330 nM | TGI (CAKI-1): >100000 nM | GI50 (CAKI-1; Homo sapiens): 42.6 nM | TGI (ACHN): >100000 nM | GI50 (ACHN; Homo sapiens): 81.3 nM | GI50 (SF-539; Homo sapiens): 20 nM | TGI (SF-539): 50 nM | TGI (A549/ATCC): >100000 nM | GI50 (A549/ATCC; Homo sapiens): 54.1 nM | GI50 (UACC-62; Homo sapiens, UACC-62, UACC-62, Melanoma): 157 nM | TGI (UACC-62; UACC-62, Melanoma): 4610 nM | TGI (KM12): >100000 nM | GI50 (KM12; Homo sapiens): 35.3 nM | TGI (1-ICT-15): >100000 nM | GI50 (1-ICT-15; Homo sapiens): 37.3 nM | TGI (MDA-MB-231/ATCC): >100000 nM | GI50 (MDA-MB-231/ATCC; Homo sapiens): 94.7 nM | TGI (CCRF-CEM): >100000 nM | GI50 (CCRF-CEM; Homo sapiens): 37.3 nM | TGI (786-0): >100000 nM | GI50 (786-0; Homo sapiens): 42.8 nM | TGI (5K-MEL-5): 350 nM | GI50 (5K-MEL-5; Homo sapiens): 12.6 nM | GI50 (MDA-MB-468; Homo sapiens): 34.6 nM | TGI (MDA-MB-468): 26000 nM | GI50 (U0-31; Homo sapiens): 92.3 nM | TGI (U0-31): >100000 nM | TGI (HOP-92): 11300 nM | GI50 (HOP-92; Homo sapiens): 98.9 nM | GI50 (M14): 21.5 nM | GI50 (HCT-116): 40.2 nM | TGI (COLO 205): 1160 nM | GI50 (COLO 205; Homo sapiens): 228 nM | GI50 (SF-268; Homo sapiens): 503 nM | TGI (SF-268): >100000 nM | GI50 (MOLT-4; Homo sapiens): 68.2 nM | TGI (MOLT-4): >100000 nM | GI50 (SW-620; Homo sapiens): 40.6 nM | TGI (SW-620): >100000 nM | GI50 (SNB-75): 15.7 nM | GI50 (SNB-19; Homo sapiens): 52.5 nM | TGI (SNB-19): >100000 nM | GI50 (MDA-MB-435): < 10 nM | TGI (SR): >100000 nM | GI50 (SR; Homo sapiens): 21.1 nM | GI50 (DU-145): 26.6 nM | TGI (MCF7): >100000 nM | GI50 (MCF7; Homo sapiens): 26.9 nM | TGI (NCI-H460): >100000 nM | GI50 (NCI-H460; Homo sapiens): 38.1 nM | TGI (HT29): 14500 nM | GI50 (HT29; Homo sapiens, HT-29): 214 nM | TGI (HOP-62): >100000 nM | GI50 (HOP-62; Homo sapiens): 46.7 nM | TGI (HCC-2998): >100000 nM | GI50 (HCC-2998; Homo sapiens): 230 nM | GI50 (SK-OV-3; Homo sapiens): 75 nM | TGI (SK-OV-3): 97700 nM | TGI (NCI-H23): >100000 nM | GI50 (NCI-H23; Homo sapiens): 64.9 nM | TGI (NCI/ADR-RES): 66100 nM | GI50 (NCI/ADR-RES; Homo sapiens): 23.1 nM | GI50 (PC-3; Homo sapiens): 45.8 nM | TGI (PC-3): >100000 nM | GI50 (OVCAR-4; Homo sapiens): 77.4 nM | TGI (OVCAR-4): >100000 nM
